In patent publication US11572590B2, “Methods for evaluating tumor cell spheroids using 3D microfluidic cell culture device” (Dana-Farber Cancer Institute, Inc., priority 2017, dated 2023):
Where two headings read alike, the source gives them in different places.

Tests used:
Assay in all cases: SelectScreen Kinase Profiling, single point inhibition and IC50 for off-target kinases
Type in all cases: biochemical
off-target kinases [1] = molecular target: T1, off-target kinases (Homo sapiens, UniProt Q8IW41); conditions: MAPKAPK5 (PRAK), ZLYTE, ATP Km app
T1 sequence (Q8IW41 1-473): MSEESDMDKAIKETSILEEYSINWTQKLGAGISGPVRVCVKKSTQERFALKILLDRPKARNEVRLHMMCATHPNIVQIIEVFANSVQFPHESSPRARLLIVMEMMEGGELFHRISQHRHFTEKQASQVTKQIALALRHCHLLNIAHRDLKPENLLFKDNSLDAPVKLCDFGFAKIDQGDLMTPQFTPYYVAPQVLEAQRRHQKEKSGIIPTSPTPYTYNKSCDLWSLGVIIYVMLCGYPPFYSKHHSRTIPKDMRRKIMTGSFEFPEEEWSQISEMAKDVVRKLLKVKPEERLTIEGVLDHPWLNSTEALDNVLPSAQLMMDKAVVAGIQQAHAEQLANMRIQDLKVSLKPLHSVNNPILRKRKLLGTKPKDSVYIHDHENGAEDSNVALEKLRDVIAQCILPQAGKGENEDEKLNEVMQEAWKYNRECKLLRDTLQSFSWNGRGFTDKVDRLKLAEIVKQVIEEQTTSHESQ

off-target kinases [2] = molecular target: T2, off-target kinases (Homo sapiens, UniProt Q16832, N456S); conditions: DDR2 N456S, mutant y, LanthaScreen Binding
T2 sequence (Q16832 22-855 N456S): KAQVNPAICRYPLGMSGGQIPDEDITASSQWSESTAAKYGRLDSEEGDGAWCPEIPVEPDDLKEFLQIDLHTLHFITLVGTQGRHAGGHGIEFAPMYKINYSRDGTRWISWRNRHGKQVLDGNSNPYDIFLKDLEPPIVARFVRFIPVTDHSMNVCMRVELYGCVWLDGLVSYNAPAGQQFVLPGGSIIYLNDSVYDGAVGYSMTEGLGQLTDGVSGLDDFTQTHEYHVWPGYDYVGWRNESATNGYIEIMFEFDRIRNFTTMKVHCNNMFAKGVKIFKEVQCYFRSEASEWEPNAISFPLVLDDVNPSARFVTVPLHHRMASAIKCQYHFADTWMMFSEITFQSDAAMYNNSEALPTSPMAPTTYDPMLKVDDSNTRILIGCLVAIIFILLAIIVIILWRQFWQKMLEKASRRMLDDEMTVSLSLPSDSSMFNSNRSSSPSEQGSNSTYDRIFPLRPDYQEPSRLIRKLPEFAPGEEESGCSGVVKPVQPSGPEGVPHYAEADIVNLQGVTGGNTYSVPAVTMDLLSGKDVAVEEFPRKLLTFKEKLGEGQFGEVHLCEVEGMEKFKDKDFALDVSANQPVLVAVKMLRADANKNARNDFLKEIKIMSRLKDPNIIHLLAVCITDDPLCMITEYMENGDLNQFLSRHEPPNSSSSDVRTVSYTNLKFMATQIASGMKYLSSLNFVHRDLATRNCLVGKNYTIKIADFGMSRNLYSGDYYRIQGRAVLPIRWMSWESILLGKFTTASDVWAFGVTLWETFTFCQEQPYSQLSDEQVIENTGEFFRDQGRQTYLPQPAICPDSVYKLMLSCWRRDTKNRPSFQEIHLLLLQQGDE

off-target kinases [3] = molecular target: off-target kinases (Homo sapiens, UniProt Q9NQU5); conditions: PAK6, ZLYTE, ATP Km app
Sequence of off-target kinases (Homo sapiens, UniProt Q9NQU5) (Q9NQU5 whole entry): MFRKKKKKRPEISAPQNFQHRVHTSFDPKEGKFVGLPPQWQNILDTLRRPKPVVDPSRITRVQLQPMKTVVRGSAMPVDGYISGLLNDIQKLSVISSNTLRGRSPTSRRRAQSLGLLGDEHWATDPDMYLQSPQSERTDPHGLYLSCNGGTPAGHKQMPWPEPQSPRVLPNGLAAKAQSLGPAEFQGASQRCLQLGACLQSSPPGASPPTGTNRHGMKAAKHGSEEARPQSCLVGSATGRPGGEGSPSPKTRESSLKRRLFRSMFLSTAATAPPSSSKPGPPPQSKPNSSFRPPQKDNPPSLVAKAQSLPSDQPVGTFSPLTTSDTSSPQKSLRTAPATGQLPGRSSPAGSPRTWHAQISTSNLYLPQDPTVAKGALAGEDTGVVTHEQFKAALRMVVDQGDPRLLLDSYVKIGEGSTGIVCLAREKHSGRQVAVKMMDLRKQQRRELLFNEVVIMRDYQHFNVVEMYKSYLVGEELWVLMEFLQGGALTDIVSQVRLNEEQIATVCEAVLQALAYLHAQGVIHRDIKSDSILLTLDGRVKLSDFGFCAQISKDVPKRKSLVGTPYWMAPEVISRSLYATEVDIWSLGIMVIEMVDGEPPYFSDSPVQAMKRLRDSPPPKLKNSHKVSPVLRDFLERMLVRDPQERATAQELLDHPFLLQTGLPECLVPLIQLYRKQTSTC

off-target kinases [4] = molecular target: off-target kinases (Homo sapiens, UniProt Q14289); conditions: PTK2B (FAK2), ZLYTE, ATP Km app
Sequence of off-target kinases (Homo sapiens, UniProt Q14289) (Q14289 whole entry): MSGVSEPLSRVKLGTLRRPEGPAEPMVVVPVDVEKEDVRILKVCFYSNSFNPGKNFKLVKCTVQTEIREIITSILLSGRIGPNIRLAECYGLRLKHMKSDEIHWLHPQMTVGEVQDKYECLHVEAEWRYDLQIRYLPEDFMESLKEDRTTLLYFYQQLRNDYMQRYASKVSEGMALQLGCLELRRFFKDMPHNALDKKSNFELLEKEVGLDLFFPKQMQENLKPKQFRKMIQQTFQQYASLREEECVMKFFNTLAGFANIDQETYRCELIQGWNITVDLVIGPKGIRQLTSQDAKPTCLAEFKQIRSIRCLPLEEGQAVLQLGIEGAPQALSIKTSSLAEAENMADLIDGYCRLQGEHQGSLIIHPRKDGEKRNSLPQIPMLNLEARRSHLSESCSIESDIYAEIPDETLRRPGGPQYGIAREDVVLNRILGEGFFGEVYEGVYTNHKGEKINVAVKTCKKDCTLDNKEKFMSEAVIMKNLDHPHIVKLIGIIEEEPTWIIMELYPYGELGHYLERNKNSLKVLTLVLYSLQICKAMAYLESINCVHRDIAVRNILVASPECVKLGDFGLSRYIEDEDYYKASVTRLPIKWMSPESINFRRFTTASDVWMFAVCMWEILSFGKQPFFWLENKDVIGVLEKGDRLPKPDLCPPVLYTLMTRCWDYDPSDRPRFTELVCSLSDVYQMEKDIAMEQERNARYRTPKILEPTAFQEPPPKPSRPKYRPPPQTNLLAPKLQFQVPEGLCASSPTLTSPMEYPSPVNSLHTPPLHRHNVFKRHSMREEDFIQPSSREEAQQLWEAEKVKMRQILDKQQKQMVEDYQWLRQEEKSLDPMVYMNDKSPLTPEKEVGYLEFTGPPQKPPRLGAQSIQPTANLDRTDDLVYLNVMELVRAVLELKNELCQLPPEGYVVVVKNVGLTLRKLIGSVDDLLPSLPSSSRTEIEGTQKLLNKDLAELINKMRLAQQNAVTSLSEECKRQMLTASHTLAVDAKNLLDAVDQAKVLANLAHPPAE

off-target kinases [5] = molecular target: off-target kinases (Homo sapiens, UniProt P00519, T315I); conditions: ABL1 T315I, mutant y, ZLYTE, ATP Km app
off-target kinases [6] = molecular target: off-target kinases (Homo sapiens, UniProt P51451); conditions: BLK, ATP Km app, ZLYTE
Sequence of off-target kinases (Homo sapiens, UniProt P51451) (P51451 whole entry): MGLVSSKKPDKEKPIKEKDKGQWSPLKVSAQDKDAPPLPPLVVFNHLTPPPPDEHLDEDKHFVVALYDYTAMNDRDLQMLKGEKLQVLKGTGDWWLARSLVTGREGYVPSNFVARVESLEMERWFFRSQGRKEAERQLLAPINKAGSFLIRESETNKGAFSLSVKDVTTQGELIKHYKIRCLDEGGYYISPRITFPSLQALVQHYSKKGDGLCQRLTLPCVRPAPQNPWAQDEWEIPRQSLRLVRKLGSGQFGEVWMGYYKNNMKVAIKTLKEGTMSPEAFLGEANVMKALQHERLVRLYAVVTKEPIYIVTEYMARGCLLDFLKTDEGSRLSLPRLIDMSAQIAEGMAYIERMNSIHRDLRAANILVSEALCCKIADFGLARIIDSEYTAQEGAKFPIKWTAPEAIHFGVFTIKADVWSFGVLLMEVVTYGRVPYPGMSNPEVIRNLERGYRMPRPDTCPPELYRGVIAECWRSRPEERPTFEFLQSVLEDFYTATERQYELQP

N#Cc1cc(-c2ncnc(Nc3ccc(N4CCN(C5COC5)CC4)cc3)n2)ccc1OC1CCOCC1 [Compound 1, 5-(4-((4-(4-(oxetan-3-yl)piperazin-1-yl)phenyl)amino)-1,3,5-triazin-2-yl)-2-((tetrahydro-2H-pyran-4-yl)oxy)benzonitrile]
inhibition (off-target kinases [1]; read-out: % Inhibition 1): 6% | inhibition (off-target kinases [1]; read-out: % Inhibition 2): 7% | inhibition (off-target kinases [1]; read-out: % Inhibition Avg): 6% | inhibition (off-target kinases [2]; read-out: % Inhibition 1): 33% | inhibition (off-target kinases [2]; read-out: % Inhibition 2): 42% | inhibition (off-target kinases [2]; read-out: % Inhibition Avg): 37% | inhibition (off-target kinases [3]; read-out: % Inhibition 1): 9% | inhibition (off-target kinases [3]; read-out: % Inhibition 2): 4% | inhibition (off-target kinases [3]; read-out: % Inhibition Avg): 6% | inhibition (off-target kinases [4]; read-out: % Inhibition 1): 8% | inhibition (off-target kinases [4]; read-out: % Inhibition 2): 4% | inhibition (off-target kinases [4]; read-out: % Inhibition Avg): 6% | inhibition (off-target kinases [5]; read-out: % Inhibition 1): 30% | inhibition (off-target kinases [5]; read-out: % Inhibition 2): 29% | inhibition (off-target kinases [5]; read-out: % Inhibition Avg): 29% | inhibition (off-target kinases [6]; read-out: % Inhibition 1): 41% | inhibition (off-target kinases [6]; read-out: % Inhibition 2): 42% | inhibition (off-target kinases [6]; read-out: % Inhibition Avg): 42%
